Results reported in BigSolDB 2.1.

Cc1cc(C)c(C(=O)P(=O)(C(=O)c2c(C)cc(C)cc2C)c2ccccc2)c(C)c1
Details | solubility (mole fraction)
in acetonitrile, 295.4 K | 0.00463
in acetonitrile, 303.2 K | 0.00793
in acetonitrile, 308 K | 0.0108
in acetonitrile, 313.3 K | 0.0154
in acetonitrile, 318.1 K | 0.0225
in acetonitrile, 323.2 K | 0.03
in acetonitrile, 328.1 K | 0.0421
in acetonitrile, 333.2 K | 0.0611
in acetonitrile, 338.1 K | 0.0863
in cyclohexane, 295.4 K | 0.0016
in cyclohexane, 303.2 K | 0.00239
in cyclohexane, 308.3 K | 0.00323
in cyclohexane, 313.1 K | 0.00414
in cyclohexane, 318.2 K | 0.00542
in cyclohexane, 323.4 K | 0.00732
in cyclohexane, 328.1 K | 0.00966
in cyclohexane, 333.2 K | 0.0123
in cyclohexane, 338.1 K | 0.017
in cyclohexane, 343.3 K | 0.0217
in ethanol, 295.4 K | 0.00372
in ethanol, 303.2 K | 0.00627
in ethanol, 307.2 K | 0.00827
in ethanol, 313.1 K | 0.0119
in ethanol, 318 K | 0.0161
in ethanol, 324.1 K | 0.0239
in ethanol, 328.3 K | 0.0326
in ethanol, 333.2 K | 0.0471
in ethyl acetate, 295.4 K | 0.0178
in ethyl acetate, 303.2 K | 0.0259
in ethyl acetate, 307.9 K | 0.0326
in ethyl acetate, 313.2 K | 0.0406
in ethyl acetate, 318.2 K | 0.0508
in ethyl acetate, 323.3 K | 0.064
in ethyl acetate, 328.2 K | 0.0842
in ethyl acetate, 333 K | 0.103
in ethyl acetate, 338.1 K | 0.127
in ethyl acetate, 343.2 K | 0.16
in isopropanol, 295.4 K | 0.00278
in isopropanol, 305.2 K | 0.0055
in isopropanol, 308.2 K | 0.0068
in isopropanol, 313.3 K | 0.0098
in isopropanol, 318 K | 0.0137
in isopropanol, 324.1 K | 0.0205
in isopropanol, 328.1 K | 0.0281
in isopropanol, 333.2 K | 0.04
in isopropanol, 338.3 K | 0.0556
in isopropanol, 343.2 K | 0.0793
in methanol, 295.4 K | 0.00235
in methanol, 303.2 K | 0.00434
in methanol, 308.3 K | 0.00629
in methanol, 313.1 K | 0.00909
in methanol, 318.2 K | 0.0134
in methanol, 323.4 K | 0.0195
in methanol, 328 K | 0.0283
in methanol, 333.2 K | 0.0427
in n-hexane, 295.4 K | 0.00151
in n-hexane, 303.2 K | 0.00218
in n-hexane, 308.1 K | 0.00277
in n-hexane, 313.2 K | 0.00323
in n-hexane, 318.1 K | 0.00389
in n-hexane, 322.9 K | 0.00442
in n-hexane, 328.1 K | 0.00525
in n-hexane, 333.2 K | 0.00635
